Measurements: US7053175B1, “Synthetic peptides useful in biological assays for detecting infections caused by group O HIV-1 viruses” (Bio-Rad Pasteur, priority 1997, dated 2006)

Key:
[1] = tested on: serum samples from patients infected with group O HIV-1 retroviruses; assay: Immunoenzymatic test: Test No. 2 (immunoreactivity with diluted sera); assay type: binding, human; details: for Number of samples: sera of Table V; for Number of samples / ABSORBANCE (OD): solid phase peptide 2 μg/ml; for ABSORBANCE (OD): cyclized
Description: The serum samples from patients infected with group O HIV-1 retroviruses were obtained by the Yaounde Pasteur Centre in Cameroon and were serotyped group O according to the serological algorithm described in AIDS (1977), 11, pp. 445-453. A genotyped sample (Maryland) is obtained from the United States. These samples were previously diluted in negative human serum at the dilutions given in Table V, in order to have a sufficient volume for the different immunoreactivity tests.
The synthetic peptides used were dissolved in water at a concentration of 1 mg/ml (stock solution). For the solid phase sensitization step (“coating”), the procedure was carried out as described for Example 2.
The serum samples were diluted 1/5 with a skimmed milk solution (citrate buffer supplemented with 0.01% of phenol red, 0.25% of chloroform and 0.25% of Kathon®), deposited in the wells of plates and incubated for 30 min at 40° C.
(§1) After washing with a Tris-NaCl buffer solution pH 7.4 containing 0.1% of Tween® 20 and 0.001% of sodium merthiolate, 100 μl of a solution of conjugate consisting of horseradish peroxidase-labelled anti-human IgG and IgM goat antibodies, containing as preservative 0.01% of sodium merthiolate, in solution in a citrate buffer solution supplemented with 30% glycerol and 25% normal foetal calf serum, were added to each well of the plates and then they were incubated for 30 min at 40° C.
After washing with a Tris-NaCl buffer solution pH 7.4 containing 0.1% of Tween® 20 and 0.001% of sodium merthiolate, the colour was developed as described in Example 2.
The relative absorbance (OD) (A490-A620) read in each well is proportional to the immunoreactivity of each peptide. It indicates the ability of each peptide to react with the biological sample with which the test is carried out.
The reactivity of the peptides of the invention, peptides No. 10 (14B), No. 11 (18B), No. 12 (19B), No. 14 (21B), No. 15 (22B), No. 16 (23B) all in cyclized form, was compared with that of three homologous synthetic peptides having, as sequence, a portion of the natural sequence of the envelope (env) of a group O HIV-1 retrovirus. These peptides are two peptides derived from the VAU isolate—the peptide VAU 22 AA and the peptide VAU 35 AA—and the peptide MVP 5180 (designated “MVP 5180” in Table V). The peptides VAU 22 AA and VAU 35 AA (whose structure is indicated in Example 2) and the peptide MVP 5180 comprise an immunodominant epitope of gp41.
All these peptides were used in cyclized form. The sequence of the MVP 5180 peptide is the following:
For each peptide tested, the samples were arranged into four classes (a, b, c and d) corresponding to various levels of relative absorbance read at the wavelengths A492-A620: • for a: OD<0.100, • for b: 0.100<OD<0.500, • for c: 0.500<OD<1.000, • for d: OD>1.000, thus making it possible to evaluate the degree of immunoreactivity of the peptides.

[2] = tested on: sera from patients infected with group O HIV-1 retroviruses; assay: Immunoenzymatic test: Test No. 1 (immunoreactivity of peptides coated on microplates); assay type: binding, human; set-up: key to ABSORBANCE: >: signal greater than the reading capacity of the spectrophotometer; details: for ABSORBANCE: cyclized peptide 2 μg/ml
Description: The sera used ESS, DUR, VAU and HAD are sera from French patients infected with group O HIV-1 retroviruses. The other serum samples from patients infected with group O HIV-1 retroviruses were obtained by the Yaoundé Pasteur Centre in Cameroon and were serotyped group O according to the serological algorithm described in AIDS (1977), 11, pp 445-453.
The HIV-negative sera (n=48) were obtained from healthy volunteers.
The synthetic peptides used were dissolved in water at a concentration of 1 mg/ml (stock solution). For the solid phase sensitization step (coating), 110 μl of a solution at 2 μg/ml of each peptide (obtained by diluting the stock solution with 0.1 M carbonate buffer solution) were added to each well of the microtitre plates Microtiter™ (NUNC). After incubating overnight at room temperature, the microplates were first washed with a Tris-NaCl buffer solution pH 7.4 containing 0.1% of Tween® 20 and 0.001% sodium merthiolate, and then saturated with a PBS solution containing 0.5% of Régilait™ (dried skimmed milk). After aspirating the saturating solution, the plates were heated for 10 min at 50° C.
The serum samples were diluted 1/5 with a skimmed milk solution (citrate buffer supplemented with 0.01% of phenol red, 0.25% of chloroform and 0.25% of Kathon®), deposited in the wells of the plates and incubated for 30 min at 40° C.
as §1, with “each plate” for “each”, “well and then” for “well of”, “plates” for “plates and then they”
After washing with a Tris-NaCl buffer solution pH 7.4 containing 0.1% of Tween® 20 and 0.001% of sodium merthiolate, the colour was developed by adding, to each well, 100 μl of O-phenylenediamine in solution in hydrogen peroxide. The microplates were then incubated for 30 min at room temperature and in the dark. The coloured reaction was then stopped by addition of 100 μl of 4N sulphuric acid. The absorbance (A) was determined at 490 and 620 nm.
The relative absorbance (A490-A620) read in each well is proportional to the immunoreactivity of each peptide. It indicates the ability of each peptide to react with the biological sample with which the test is carried out. The cut-off value was determined as being an absorbance equal to 0.15. It corresponds to the mean of the negative values (n=48) plus 12 standard deviations.
The reactivity of the peptides of the invention (peptide No. 3 (4B), peptide No. 2 (3B) and peptide No. 1 (2B), all in cyclized form), was compared with that of two synthetic peptides having, as sequence, a portion of the natural sequence of the envelope (env) of the VAU isolate (group O HIV-1 retrovirus) and comprising an immunodominant epitope of gp41.
For the study, these peptides were used in cyclized form.

LNQQRLLNSWGCKGRLVCYTSV [PEPTIDE No. 14 (21B)]
Number of samples ([1]; CLASS A (a: OD<0.100)): 1 | Number of samples ([1]; CLASS B (b: 0.100<OD<0.500)): 3 | Number of samples ([1]; CLASS C (c: 0.500<OD<1.000)): 4 | Number of samples ([1]; CLASS D (d: OD>1.000)): 6 | ABSORBANCE (OD) ([1]; serum 258 OUDI at 1/100): 0.764 | ABSORBANCE (OD) ([1]; serum 625 at 1/50): 2.045 | ABSORBANCE (OD) ([1]; serum 3600 at 1/100): 0.716 | ABSORBANCE (OD) ([1]; serum 3613 at ¼00): 1.508 | ABSORBANCE (OD) ([1]; serum 3653 at 1/10): 0.072 | ABSORBANCE (OD) ([1]; serum 4280 at 1/50): 0.286 | ABSORBANCE (OD) ([1]; serum 6111 at 1/100): 0.850 | ABSORBANCE (OD) ([1]; serum DJOU at 1/100): 1.998 | ABSORBANCE (OD) ([1]; serum DO15 at 1/100): 3.357 | ABSORBANCE (OD) ([1]; serum MBASSI at 1/100): 2.134 | ABSORBANCE (OD) ([1]; serum Maryland at ¼00): 0.734 | ABSORBANCE (OD) ([1]; serum NGO at 1/50): 0.157 | ABSORBANCE (OD) ([1]; serum NJEM at 1/100): 0.277 | ABSORBANCE (OD) ([1]; serum WANG at 1/50): 2.397 | immunoreactivity compared with the reference peptides (in words) ([1]; summary of Tables V and VI): most immunoreactive

LLSLWGCRGRLVCYTSVQWNET [PEPTIDE No. 2 (3B)]
ABSORBANCE ([2]; serum 134): > | ABSORBANCE ([2]; serum 402): > | ABSORBANCE ([2]; serum 625): > | ABSORBANCE ([2]; serum 1062): > | ABSORBANCE ([2]; serum 1105*): 1.031 | ABSORBANCE ([2]; serum 1581): > | ABSORBANCE ([2]; serum 1702): > | ABSORBANCE ([2]; serum 1754): > | ABSORBANCE ([2]; serum 2294): > | ABSORBANCE ([2]; serum 2312): > | ABSORBANCE ([2]; serum 2313): > | ABSORBANCE ([2]; serum 2352): > | ABSORBANCE ([2]; serum 2551): > | ABSORBANCE ([2]; serum 2700): 0.274 | ABSORBANCE ([2]; serum 3016): > | ABSORBANCE ([2]; serum 3136): 0.992 | ABSORBANCE ([2]; serum 3235): > | ABSORBANCE ([2]; serum 3236): > | ABSORBANCE ([2]; serum 3302): > | ABSORBANCE ([2]; serum 3482): > | ABSORBANCE ([2]; serum 3529): > | ABSORBANCE ([2]; serum 3600*): > | ABSORBANCE ([2]; serum 3627*): > | ABSORBANCE ([2]; serum 3637): > | ABSORBANCE ([2]; serum 3653): > | ABSORBANCE ([2]; serum 3771): > | ABSORBANCE ([2]; serum 3884*): > | ABSORBANCE ([2]; serum 3891): > | ABSORBANCE ([2]; serum 3935): 0.893 | ABSORBANCE ([2]; serum 3945): > | ABSORBANCE ([2]; serum 4021*): 0.119 | ABSORBANCE ([2]; serum 4288*): > | ABSORBANCE ([2]; serum 4364): > | ABSORBANCE ([2]; serum 4434): > | ABSORBANCE ([2]; serum 4477): > | ABSORBANCE ([2]; serum 4489*): > | ABSORBANCE ([2]; serum 5149*): > | ABSORBANCE ([2]; serum 5164): > | ABSORBANCE ([2]; serum 5210): > | ABSORBANCE ([2]; serum 5270*): > | ABSORBANCE ([2]; serum 5373): > | ABSORBANCE ([2]; serum 5453): 0.081 | ABSORBANCE ([2]; serum 5766*): > | ABSORBANCE ([2]; serum 5931): > | ABSORBANCE ([2]; serum 5969*): 0.282 | ABSORBANCE ([2]; serum 6111): > | ABSORBANCE ([2]; serum 6165): > | ABSORBANCE ([2]; serum 6198*): > | ABSORBANCE ([2]; serum 6295*): 1.063 | ABSORBANCE ([2]; serum 6487): 1.017 | ABSORBANCE ([2]; serum 6512*): 0.785 | ABSORBANCE ([2]; serum 6627): > | ABSORBANCE ([2]; serum 6689*): > | ABSORBANCE ([2]; serum 6697): > | ABSORBANCE ([2]; serum 6782): 2.091 | ABSORBANCE ([2]; serum 6891): 0.614 | ABSORBANCE ([2]; serum 6976*): > | ABSORBANCE ([2]; serum 6998): > | ABSORBANCE ([2]; serum 7007): 2.334 | ABSORBANCE ([2]; serum 7120): > | ABSORBANCE ([2]; serum 7212): > | ABSORBANCE ([2]; serum 7258*): > | ABSORBANCE ([2]; serum 7297*): > | ABSORBANCE ([2]; serum 7439): > | ABSORBANCE ([2]; serum 7443): > | ABSORBANCE ([2]; serum DUR*): > | ABSORBANCE ([2]; serum ESS*): > | ABSORBANCE ([2]; serum HAD): 0.518 | ABSORBANCE ([2]; serum VAU*): > | immunoreactivity compared with the other peptides (in words) ([2]; summary of Table IV): more immunoreactive than the VAU 22 AA peptide
